For 29 compounds, inhibition results are on record in US20140243335A1, “SUBSTITUTED HYDOXAMIC ACIDS AND USES THEREOF” (Millennium Pharmaceuticals, Inc., priority 2010, published 2014).

In general, inhibition refers to the drop in the measured response relative to a control, in per cent.

The target in this test is T1, purified human HDAC6 (Homo sapiens, UniProt Q9UBN7).
T1 construct: purchased BPS Bioscience 5006
T1 sequence (Q9UBN7 1-1215): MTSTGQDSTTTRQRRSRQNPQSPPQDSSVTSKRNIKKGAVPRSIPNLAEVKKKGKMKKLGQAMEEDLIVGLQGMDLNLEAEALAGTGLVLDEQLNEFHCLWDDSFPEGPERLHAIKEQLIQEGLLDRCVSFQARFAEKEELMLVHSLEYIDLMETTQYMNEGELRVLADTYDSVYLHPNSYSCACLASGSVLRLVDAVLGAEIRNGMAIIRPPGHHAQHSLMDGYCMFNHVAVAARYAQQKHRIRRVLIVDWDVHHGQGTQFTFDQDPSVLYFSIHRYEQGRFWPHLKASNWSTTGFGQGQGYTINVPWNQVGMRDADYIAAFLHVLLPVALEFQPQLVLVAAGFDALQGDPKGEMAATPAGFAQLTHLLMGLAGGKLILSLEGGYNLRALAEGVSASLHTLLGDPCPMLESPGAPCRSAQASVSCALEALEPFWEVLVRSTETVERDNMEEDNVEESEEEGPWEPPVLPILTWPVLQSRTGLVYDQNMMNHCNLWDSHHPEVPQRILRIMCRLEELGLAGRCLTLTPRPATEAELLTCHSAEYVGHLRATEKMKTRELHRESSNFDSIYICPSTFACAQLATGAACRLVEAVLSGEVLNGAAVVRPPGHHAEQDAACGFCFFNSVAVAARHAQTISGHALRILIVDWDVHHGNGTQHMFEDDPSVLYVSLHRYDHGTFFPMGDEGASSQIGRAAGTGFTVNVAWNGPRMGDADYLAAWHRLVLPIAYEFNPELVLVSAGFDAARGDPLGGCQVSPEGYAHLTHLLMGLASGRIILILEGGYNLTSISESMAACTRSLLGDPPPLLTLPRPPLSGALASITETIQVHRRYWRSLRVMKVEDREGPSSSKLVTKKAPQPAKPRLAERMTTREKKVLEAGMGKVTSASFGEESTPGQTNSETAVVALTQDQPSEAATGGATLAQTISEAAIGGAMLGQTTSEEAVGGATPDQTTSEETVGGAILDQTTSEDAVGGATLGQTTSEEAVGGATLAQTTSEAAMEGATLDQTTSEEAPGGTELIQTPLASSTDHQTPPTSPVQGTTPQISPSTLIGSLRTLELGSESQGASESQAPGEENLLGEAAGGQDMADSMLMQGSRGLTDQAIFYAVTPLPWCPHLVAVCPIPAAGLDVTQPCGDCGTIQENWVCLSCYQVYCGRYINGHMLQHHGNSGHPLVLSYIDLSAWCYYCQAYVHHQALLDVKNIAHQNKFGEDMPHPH
Description: HDAC6 Enzyme Assay. The class given is biochemical. The settings on record: HDAC6 inhibition at a compound concentration of 0.412 μM; read-out: Percent Inhibition at 0.412 μM.
Turning to `CC(=O)N/C(=C\c1ccccc1)C(=O)NC1CCCc2cc(C(=O)NO)ccc21` (centres unmarked) [Compound I-27, 5-{[(2Z)-2-(acetylamino)-3-phenylprop-2-enoyl]amino}-N-hydroxy-5,6,7,8-tetrahydronaphthalene-2-carboxamide], the inhibition at 0.412 µM came to 11%.

With `Cc1ccc2[nH]c(C(=O)NC3CCCc4cc(C(=O)NO)ccc43)cc2c1` (centres unmarked) [Compound I-39, N-{6-[(hydroxyamino)carbonyl]-1,2,3,4-tetrahydronaphthalen-1-yl}-5-methyl-1H-indole-2-carboxamide], the inhibition at 0.412 µM was 60%.

For `CCCC(=O)N1C2CCC1c1cc(C(=O)NO)ccc12` (centres unmarked) [Compound I-207, 9-butyryl-N-hydroxy-1,2,3,4-tetrahydro-1,4-epiminonaphthalene-6-carboxamide], the inhibition at 0.412 µM is 25%.

For `O=C(NO)c1ccc2c(c1)CCCC2NC(=O)c1cn2cc(Cl)ccc2n1` (centres unmarked) [Compound I-29, 6-chloro-N-{6-[(hydroxyamino)carbonyl]-1,2,3,4-tetrahydronaphthalen-1-yl}imidazo[1,2-a]pyridine-2-carboxamide], the inhibition at 0.412 µM was determined as 70%.

On to `O=C(NO)c1ccc2c(c1)CCCC2NC(=O)c1ccc2ncsc2c1` (centres unmarked) [Compound I-28, N-{6-[(hydroxyamino)carbonyl]-1,2,3,4-tetrahydronaphthalen-1-yl}-1,3-benzothiazole-6-carboxamide], for which the inhibition at 0.412 µM is -2%.

With `O=C(NO)c1ccc2c(c1)CC(c1ccccc1C(F)(F)F)CC2` (centres unmarked) [Compound I-185, N-hydroxy-7-[2-(trifluoromethyl)phenyl]-5,6,7,8-tetrahydronaphthalene-2-carboxamide], the inhibition at 0.412 µM came out at 85%.

Take `O=C(NO)c1ccc2c(c1)CCC(Oc1ccnc(Nc3ccc(Cl)cc3)c1)C2` (centres unmarked) [Compound I-228, 6-({2-[(4-chlorophenyl)amino]pyridin-4-yl}oxy)-N-hydroxy-5,6,7,8-tetrahydronaphthalene-2-carboxamide]: the inhibition at 0.412 µM came out at 90%.

For `Cc1onc(-c2ccccc2Cl)c1C(=O)NC1CCCc2cc(C(=O)NO)ccc21` (centres unmarked) [Compound I-38, 3-(2-chlorophenyl)-N-{6-[(hydroxyamino)carbonyl]-1,2,3,4-tetrahydronaphthalen-1-yl}-5-methylisoxazole-4-carboxamide], the inhibition at 0.412 µM was found to be 18%.

With `CC(C)(C)c1ccc(C(=O)N2C3CCC2c2cc(C(=O)NO)ccc23)cc1` (centres unmarked) [Compound I-200, 9-(4-tert-butylbenzoyl)-N-hydroxy-1,2,3,4-tetrahydro-1,4-epiminonaphthalene-6-carboxamide], the inhibition at 0.412 µM came to 67%.

Take `O=C(NO)c1ccc2c(c1)C1CCC2N1C(=O)c1ccc(Cl)cc1` (centres unmarked) [Compound I-197, 9-(4-chlorobenzoyl)-N-hydroxy-1,2,3,4-tetrahydro-1,4-epiminonaphthalene-6-carboxamide]: the inhibition at 0.412 µM is 55%.

As for `CC(C)(C)OC(=O)N1CCC(C2CCc3ccc(C(=O)NO)cc3C2)CC1` (centres unmarked) [Compound I-221, tert-butyl 4-{7-[(hydroxyamino)carbonyl]-1,2,3,4-tetrahydronaphthalen-2-yl}piperidine-1-carboxylate], the inhibition at 0.412 µM worked out at 41%.

In the case of `O=C(NO)c1ccc2c(c1)CC(c1ccc(Cl)cc1)CC2` (centres unmarked) [Compound I-90, 7-(4-chlorophenyl)-N-hydroxy-5,6,7,8-tetrahydronaphthalene-2-carboxamide], the inhibition at 0.412 µM was determined as 82%.

`COc1ccccc1C1CCc2cc(C(=O)NO)ccc2C1` (centres unmarked) [Compound I-104, N-hydroxy-6-(2-methoxyphenyl)-5,6,7,8-tetrahydronaphthalene-2-carboxamide]: the inhibition at 0.412 µM amounted to 56%.

Take `CC1(C)CCC(C)(C)c2cc(C(=O)NO)ccc21` [Compound I-74, N-hydroxy-5,5,8,8-tetramethyl-5,6,7,8-tetrahydronaphthalene-2-carboxamide]: the inhibition at 0.412 µM was 20%.

As to `CCN(CC)CCNC(=O)c1cc(OC2CCc3cc(C(=O)NO)ccc3C2)ccn1` (centres unmarked) [Compound I-226, N-[2-(diethylamino)ethyl]-4-({6-[(hydroxyamino)carbonyl]-1,2,3,4-tetrahydronaphthalen-2-yl}oxy)pyridine-2-carboxamide], the inhibition at 0.412 µM turned out to be 93%.

In the case of `CC(C)(C)C(=O)NC1CCCc2cc(C(=O)NO)ccc21` (centres unmarked) [Compound I-6, 5-[(2,2-dimethylpropanoyl)amino]-N-hydroxy-5,6,7,8-tetrahydronaphthalene-2-carboxamide], the inhibition at 0.412 µM turned out to be 18%.

Regarding `O=C(NO)c1ccc2c(c1)C1CCC2N1C(=O)c1cc2ccccc2o1` (centres unmarked) [Compound I-202, 9-(1-benzofuran-2-ylcarbonyl)-N-hydroxy-1,2,3,4-tetrahydro-1,4-epiminonaphthalene-6-carboxamide], the inhibition at 0.412 µM worked out at 19%.

On to `Cc1nc2ccccn2c1C(=O)NC1CCc2cc(C(=O)NO)ccc2C1` (centres unmarked) [Compound I-55, N-{6-[(hydroxyamino)carbonyl]-1,2,3,4-tetrahydronaphthalen-2-yl}-2-methylimidazo[1,2-a]pyridine-3-carboxamide], for which the inhibition at 0.412 µM came to 78%.

For the compound `O=C(Cc1ccc(C(F)(F)F)cc1)NC1CCCc2cc(C(=O)NO)ccc21` (centres unmarked) [Compound I-10, N-hydroxy-5-({[4-(trifluoromethyl)phenyl]acetyl}amino)-5,6,7,8-tetrahydronaphthalene-2-carboxamide], the inhibition at 0.412 µM worked out at 20%.

For the compound `O=C(NO)c1ccc2c(c1)CCCC2NC(=O)c1cccc(C(F)(F)F)c1` (centres unmarked) [Compound I-8, N-hydroxy-5-{[3-(trifluoromethyl)benzoyl]amino}-5,6,7,8-tetrahydronaphthalene-2-carboxamide], the inhibition at 0.412 µM stood at 33%.

Turning to `Cc1cc(C)n(CC(=O)NC2CCCc3cc(C(=O)NO)ccc32)n1` (centres unmarked) [Compound I-11, 5-{[(3,5-dimethyl-1H-pyrazol-1-yl)acetyl]amino}-N-hydroxy-5,6,7,8-tetrahydronaphthalene-2-carboxamide], the inhibition at 0.412 µM was 21%.

For the compound `O=C(NO)c1ccc2c(c1)CC(OCc1ccc(Cl)cc1)CC2` (centres unmarked) [Compound I-117, 7-[(4-chlorobenzyl)oxy]-N-hydroxy-5,6,7,8-tetrahydronaphthalene-2-carboxamide], the inhibition at 0.412 µM stood at 92%.

As for `Cn1cccc1C(=O)N[C@H]1CCCc2cc(C(=O)NO)ccc21` [Compound I-67, N-{(1S)-6-[(hydroxyamino)carbonyl]-1,2,3,4-tetrahydronaphthalen-1-yl}-1-methyl-1H-pyrrole-2-carboxamide], the inhibition at 0.412 µM is 26%.

Take `Cc1c(C(=O)NC2CCc3cc(C(=O)NO)ccc3C2)cc(-c2ccccc2)n1CCCN1CCOCC1` (centres unmarked) [Compound I-47, N-{6-[(hydroxyamino)carbonyl]-1,2,3,4-tetrahydronaphthalen-2-yl}-2-methyl-1-(3-morpholin-4-ylpropyl)-5-phenyl-1H-pyrrole-3-carboxamide]: the inhibition at 0.412 µM was determined as 82%.

Consider `O=C(NO)c1ccc2c(c1)CCC[C@H]2NC(=O)c1cc2cc(Cl)ccc2o1` [Compound I-63, 5-chloro-N-{(1R)-6-[(hydroxyamino)carbonyl]-1,2,3,4-tetrahydronaphthalen-1-yl}-1-benzofuran-2-carboxamide], for which the inhibition at 0.412 µM was found to be 18%.

For the compound `CC(=O)Nc1cc(C2CCc3ccc(C(=O)NO)cc3C2)ccn1` (centres unmarked) [Compound I-97, 7-[2-(acetylamino)pyridin-4-yl]-N-hydroxy-5,6,7,8-tetrahydronaphthalene-2-carboxamide], the inhibition at 0.412 µM turned out to be 92%.

`Cc1nc(C(=O)N2C3CCC2c2cc(C(=O)NO)ccc23)cs1` (centres unmarked) [Compound I-208, N-hydroxy-9-[(2-methyl-1,3-thiazol-4-yl)carbonyl]-1,2,3,4-tetrahydro-1,4-epiminonaphthalene-6-carboxamide]: the inhibition at 0.412 µM was found to be 34%.

`Cn1cccc1C(=O)NC1CCc2cc(C(=O)NO)ccc2C1` (centres unmarked) [Compound I-62, N-(6-(hydroxycarbamoyl)-1,2,3,4-tetrahydronaphthalen-2-yl)-1-methyl-1H-pyrrole-2-carboxamide]: the inhibition at 0.412 µM was found to be 75%.

As to `O=C(NO)c1ccc2c(c1)CCC(NC(=O)c1csc3ccccc13)C2` (centres unmarked) [Compound I-52, N-{6-[(hydroxyamino)carbonyl]-1,2,3,4-tetrahydronaphthalen-2-yl}-1-benzothiophene-3-carboxamide], the inhibition at 0.412 µM worked out at 80%.
